In patent publication US11629331B2, “Method of differentiation of human induced pluripotent stem cell to dermal papilla precursor cell and use thereof” (SEOUL NATIONAL UNIVERSITY R & DB FOUNDATION, priority 2017, dated 2023):

System: neural crest stem cells
Experiment: Flow cytometry (SDC1, CD133) of differentiation of neural crest stem cells into dermal papilla precursor cells
Type: cell-based, human
Conditions: CHIR-99021 at 0.1 μM, 1 μM and 10 μM with bFGF and BMP4; after about 2 weeks
From the text: To develop a dermal papilla precursor cell medium composition for inducing differentiation of dermal papilla precursor cells from neural crest stem cells, the possibility of differentiation into dermal papilla precursor cells was examined by treatment with several factors alone known as vital materials for dermal papilla cell differentiation or a combination thereof. To confirm differentiation into dermal papilla precursor cells, mouse anti-human SDC1 and CD133/2 antibodies were stained using PBS supplemented with 2% FBS, and then the stained cells were analyzed using a flow cytometer (BD Biosciences). A DMEM/[…]) (Reference 1) (Thermo Fisher, catalog no. […] To determine the role of a GSK-3 inhibitor as a WNT signal activator in the dermal papilla precursor cell medium composition for inducing differentiation of dermal papilla precursor cells from neural crest stem cells, the possibility of differentiation into dermal papilla precursor cells was examined by treatment with not only 6-bromoindirubin-3'-oxime (BIO) but also CHIR-99021 at 0.1 μM, 1 μM, and 10 μM. To confirm the possibility of differentiation into dermal papilla precursor cells, mouse anti-human SDC1 and CD133/2 antibodies were stained using PBS supplemented with 2% FBS, and then the stained cells were analyzed using a flow cytometer (BD Biosciences). A DMEM/[…]) (Reference 1) (Thermo Fisher, catalog no. […]

For Cc1c[nH]c(-c2cnc(NCCNc3ccc(C#N)cn3)nc2-c2ccc(Cl)cc2Cl)n1 [CHIR-99021], which “differentiation efficiency into dermal papilla precursor cells (SDC1, CD133 flow cytometry)” value is on record?
The value was “differentiation efficiency increased according to the concentration”.
